Assay results from patent US20260325655A1, “DECREASING THE INTRINSICALLY DISORDERED PROTEIN ALPHA-SYNUCLEIN’S LEVELS BY TARGETING ITS STRUCTURED MRNA WITH A RIBONUCLEASE TARGETING CHIMERA” (University of Florida Research Foundation, Incorporated, priority 2023, published 2026).

Key:
Type in all cases: cell-based, human
[1] = system: TfR mRNA; experiment: TfR mRNA in SH-SY5Y cells by RT-qPCR
Procedure: (§1) RNA extraction and reverse transcription-quantitative polymerase chain reaction (RT-qPCR). Total RNA was extracted from cells using a Quick-RNA MiniPrep Kit (Zymo Research) per the manufacturer's protocol including DNase treatment. For each sample, 200 ng of RNA was reverse transcribed into cDNA by using a qScript cDNA Synthesis Kit (QuantaBio) according to the manufacturer's instructions. To assess the relative mRNA levels, RT-qPCR was performed in triplicate using SYBR Green PCR mater mix (Applied Biosystems) with a Quant Studio 5 Real-Time PCR system. The relative levels of mRNA were calculated by using the ΔΔCt method as previously described.^8

[2] = system: α-synuclein; experiment: α-synuclein protein in iPSC-induced dopaminergic neurons
Procedure: Dopamine neuron induction. For dopamine neuronal induction,^15,16 the dual-SMAD inhibition method^17 was used for floor plate (FP)-based midbrain dopamine (DA) neuron induction with modifications. Prior to differentiation, Matrigel matrix (BD) was thawed at 4° C. overnight or on ice until it is dissolved. Matrigel coated 6-well plates were prepared according to manufacturer's instructions and incubated at 37° C. for at least 1 h before use. iPSCs were dissociated with Accutase (STEMCELL Technologies) and plated (3.5×10^5-4×10^5 cells per cm^2) into a new Matrigel coated plate and grown in mTeSR medium (STEMCELL Technologies) with StemBeads FGF2 (StemCultures) and ROCK inhibitor Y27632 (5 μM, Tocris). After 24 to 48 h, when the cells reached 100% confluency, the differentiation protocol was initiated by feeding the cells with DMEM containing 15% KnockOut Serum Replacement (KSR, Gibco), 2 mM L-glutamine (L-Glut) and 10 μM β-mercaptoethanol for 11 days. […]
ELISA (Enzyme-Linked Immunosorbent Assay). […] After compound treatment, total protein was extracted and quantified as described in Western blotting. The concentration of α-synuclein protein was measured by using Human Alpha-synuclein ELISA Kit (Abcam, ab260052) per the manufacturer's recommendations.

[3] = system: ferritin mRNA; experiment: ferritin mRNA in SH-SY5Y cells by RT-qPCR
Procedure: as §1

[4] = system: SH-SY5Y cells; experiment: cytoprotection of SH-SY5Y cells against α-synuclein pre-formed fibrils (PFF), LDH assay; details: Syn-RIBOTAC vs Synucleozid 2.0
Procedure: Lactate Dehydrogenase (LDH) assay. SH-SY5Y cells in 96-well plates (~60% confluency) were pre-treated with compounds in growth medium for 24 h, followed by addition of 50 ng/μL of human α-synuclein pre-formed fibrils (PFFs, SPR-322 from Eagle Biosciences). The cells were then incubated for an additional 48 h. Cell viability was measured using LDH (Lactate Dehydrogenase) Cytotoxicity Detection Kit (MK401; Takara) according to the manufacturer's instructions.

[5] = system: SNCA IRE-luciferase transcript; experiment: SNCA IRE-luciferase transcript abundance by RT-qPCR; details: Homo sapiens, 2 μM, read-out: reduction of SNCA IRE-luciferase transcript levels
Procedure: as §1
(§2) Plasmid constructs and establishment of reporter gene overexpressing cells. Construction of pIRES-Luc-EGFP-puro plasmid and pCDH-α-syn-5′-UTR-Luc-EGFP-puro plasmid used in 5′ UTR-luciferase-based selectivity assay were previously described.^4 Briefly, In-Fusion PCR cloning system (Takara Bio, Mountain View, CA, USA) was used for all plasmid constructions per the manufacturer's instructions. To ensure sequence accuracy, all plasmids generated in this study were confirmed by sequencing.

[6] = system: SNCA-UTR-Luciferase; experiment: SNCA-UTR luciferase reporter assay; details: Homo sapiens, M-HeLa; 2 μM; HeLa cells; read-out: decrease of luminescence signal
Excerpt: as §2
Luciferase assay. The effect of compounds on translation of SNCA IRE-containing transcript was measured by using a luciferase reporter assay. HeLa cells (~60% confluency) were transfected with plasmids (2 μg per 60 mm dish) by using JetPrime (Polyplus Transfection) according to the manufacturer's recommended procedures. Approximately 16 h after transfection, the transfection cocktail was removed, and the cells were trypsinized and seeded to 96-well plates (8,000 cells per well). After 6 h, cells were treated as described in Cell Culture. To measure the luciferase signals, the cells were then washed with 1× DPBS, and luciferase activity in each well was measured by using the ONE-Glo Luciferase Assay System (Promega) per the manufacturer's instructions. Luminescence from firefly luciferase reaction was measured using a Biomek FLx800 plate reader.

SMILES	effect on TfR mRNA level [1]	decrease of α-synuclein protein levels in dopaminergic neurons ([2]; 2 μM, PD patient-derived (SNCA triplication))	effect on ferritin mRNA level [3]	cytoprotective effect relative to the binding small molecule [4]	inhibition at 2 µM [5] [%]	inhibition at 2 µM [6] [%]	α-synuclein protein levels in dopaminergic neurons (in words) ([2]; ELISA, FIG. 3D)
CCOC(=O)C1=C(Nc2ccccc2)S/C(=C\c2ccc(OCCOCCOCCOCCNC(=O)CCCOc3ccc(-n4c(SCC(=O)Nc5ccc6cn[nH]c6c5)nnc4-c4ccncc4)cc3)c(O)c2)C1=O [Syn-RiboTAC]	None of the three transcripts was affected	~ 50%	None of the three transcripts was affected	5 -fold	~50	~40	
O=C(CSc1nnc(-c2ccncc2)n1-c1ccc(Br)cc1)Nc1ccc2cn[nH]c2c1 [Synucleozid-2.0]						~25	decreased α-synuclein protein levels
